The values that follow come from patent US10808007B2, “Desacetoxytubulysin H and analogs thereof” (WILLIAM MARSH RICE UNIVERSITY, priority 2015, dated 2020).

What all share (type): cell-based
Assay [1] deals with MES SA (uterine sarcoma cells). Put plainly: Cytotoxic assay (CellTiter-Glo, 72 h), MES SA. Particulars: Homo sapiens, MES-SA, 72 h, read-out: IC50 MES SA.
The test system of assay [2] is NCI-60 human cancer cell line panel. Put plainly: NCI-60 one-dose test. Particulars: one-dose test (10 μM), NCI-60 panel. As to the method:
(§1) A number of the synthesized compounds (i.e. Tb1-Tb23) were evaluated for their activity against a variety of cancer cell lines, namely the NCI-60 human cancer cell line panel representing leukemia, melanoma, lung, colon, brain, ovary, breast, prostate and kidney types of cancer through the In Vitro Cell Line Screening Project (IVCLSP) of the National Cancer Institute (NCI), and a summary of the results is shown in Table 1. […] As there was interest in the activity in certain other cell lines, these and the remaining compounds (Tb1-Tb41, PTb-D42 and PTb-D43) were subjected to further testing against MES SA (uterine sarcoma cells), MES SA DX (multidrug resistant uterine sarcoma cells), and HEK 293T (human embryonic kidney cells). […] Tubulysins are known to be substrates for Pgp pumps (Xiangming, et al., 2013; Kaur, et al., 2006; Szakacs, et al., 2006) as supported by the observed low activities of all tubulysins tested except Tb28, Tb32 and Tb33.

Assay [3] concerns MES SA DX (multidrug resistant uterine sarcoma cells). The assay can be described thus: Cytotoxic assay (CellTiter-Glo, 72 h), MES SA DX. Particulars: Homo sapiens.
Assay [4] concerns HEK 293T (human embryonic kidney cells). The assay can be described thus: Cytotoxic assay (CellTiter-Glo, 72 h), HEK 293T. The settings on record: Homo sapiens, HEK-293T, 72 h, read-out: IC50 HEK 293T.
Assay [5] deals with CNS cancer cell lines. The assay can be described thus: NCI-60 cytotoxicity, CNS cancer. Particulars: Homo sapiens; NCI-60, selected value. The procedure:
as §1

In assay [6] the test system is leukemia cancer cell lines. The assay can be described thus: NCI-60 cytotoxicity, leukemia. The settings on record: Homo sapiens; NCI-60, selected value. The procedure: as §1
Assay [7] has as its system breast cancer cell lines. Put plainly: NCI-60 cytotoxicity, breast cancer. Particulars: Homo sapiens; NCI-60, selected value. The procedure: as §1
Assay [8] deals with non-small cell lung cancer cell lines. Put plainly: NCI-60 cytotoxicity, non-small cell lung cancer. The settings on record: Homo sapiens; NCI-60, selected value. The procedure: as §1
The test system of assay [9] is renal cancer cell lines. The assay can be described thus: NCI-60 cytotoxicity, renal cancer. The settings on record: Homo sapiens; NCI-60, selected value. As to the method: as §1
Assay [10] relates to ovarian cancer cell lines. Put plainly: NCI-60 cytotoxicity, ovarian cancer. The settings on record: Homo sapiens; NCI-60, selected value. As to the method:
as §1

In assay [11] the test system is colon cancer cell lines. Put plainly: NCI-60 cytotoxicity, colon cancer. The settings on record: Homo sapiens; NCI-60, selected value. The procedure: as §1
Assay [12] has as its system melanoma cell lines. The assay can be described thus: NCI-60 cytotoxicity, melanoma. The settings on record: Homo sapiens; NCI-60, selected value. The procedure: as §1
For assay [13], the system named is prostate cancer cell lines. Put plainly: NCI-60 cytotoxicity, prostate cancer. The settings on record: Homo sapiens; NCI-60, selected value. As to the method: as §1

For `CCC(C)[C@H](NC(=O)CN(C)C)C(=O)N(C)[C@H](C(=O)NC12C3C4C1C1C2C3C41C(=O)N[C@@H](Cc1ccccc1)C[C@H](C)C(=O)OC)C(C)C` (stereo in doubt) [Tb18, Methyl (2S,4R)-4-(4-((S)-2-((2S,3S)-2-(2-(dimethylamino)acetamido)-N,3-dimethylpentanamido)-3-methylbutanamido)cubane-1-carboxamido)-2-methyl-5-phenylpentanoate], the IC50 in assay [1], in [3] and in assay [4] was > 50 nM each time. The “one dose, mean growth %” value in [2] is 98.48%.

For the compound `COC(=O)[C@@H](C)C[C@H](Cc1ccccc1)NC(=O)c1csc([C@@H](C[C@H](C(C)C)N(C)C(=O)[C@@H](NC(=O)C23CC(NC(C)=O)(C2)C3)C2CC2)OC(C)=O)n1` [Tb22, Methyl (2S,4R)-4-(2-((1R,3R)-3-((S)-2-(3-acetamidobicyclo[1.1.1]pentane-1-carboxamido)-2-cyclopropyl-N-methylacetamido)-1-acetoxy-4-methylpentyl)thiazole-4-carboxamido)-2-methyl-5-phenylpentanoate], the IC50 in [1], in assay [3] and in assay [4] was > 50 nM each time. Besides, the “one dose, mean growth %” value in assay [2] came to 49.38%.

Consider `CCC(C)[C@H](NC(=O)c1ccccn1)C(=O)N(C)[C@H](C[C@@H](OC(C)=O)c1nc(C(=O)NC23CC(C(=O)OC)(C2)C3)cs1)C(C)C` (stereo in doubt) [Tb15, Methyl 3-(2-((1R,3R)-1-acetoxy-3-((2S,3S)—N,3-dimethyl-2-(picolinamido)pentanamido)-4-methyl-pentyl)thiazole-4-carboxamido)bicyclo[1.1.1]pentane-1-carboxylate], for which the IC50 in [1], in assay [3] and in assay [4] was > 50 nM each time. Further, in assay [2], the “one dose, mean growth %” value was found to be 94.38%.

Take `CCC(C)[C@H](NC(=O)[C@H]1CCCCN1C)C(=O)N(C)[C@H](C(=O)NC12CC(C(=O)N[C@@H](Cc3ccccc3)C[C@H](C)C(=O)OC)(C1)C2)C(C)C` (stereo in doubt) [Tb19, Methyl (2S,4R)-4-(3-((S)-2-((2S,3S)—N,3-dimethyl-2-((R)-1-methylpiperidine-2 carboxamido)pentan amido)-3-methylbutanamido)bicyclo[1.1.1]pentane-1-carboxamido)-2-methyl-5-phenylpentanoate]: the IC50 in assay [1], in [3] and in [4] was > 50 nM each time. In assay [2], the “one dose, mean growth %” value is listed as 100.82%.

With `CCC(C)[C@H](NC(=O)c1ccccn1)C(=O)N(C)[C@H](C[C@@H](OC(C)=O)c1nc(C(=O)NC23C4C5C2C2C3C4C52C(=O)OC)cs1)C(C)C` (stereo in doubt) [Tb12, Methyl 4-(2-((1R,3R)-1-acetoxy-3-((2S,3S)—N,3-dimethyl-2-(picolinamido)pentanamido)-4-methyl-pentyl)thiazole-4-carboxamido)cubane-1-carboxylate], the IC50 in assay [1], in [3] and in assay [4] was > 50 nM throughout. The “one dose, mean growth %” value in assay [2] came to 84.90%.

As for `CC[C@H](C)[C@H](NC(=O)C12CC(NC(C)=O)(C1)C2)C(=O)N(C)[C@H](C[C@@H](OC(C)=O)c1nc(C(=O)N[C@@H](Cc2ccccc2)C[C@H](C)C(=O)OC)cs1)C(C)C` [Tb7, Methyl (2S,4R)-4-(2-((1R,3R)-3-((2S,3S)-2-(3-acetamidobicyclo[1.1.1]pentane-1-carboxamido)-N,3-dimethylpentanamido)-1-acetoxy-4-methylpentyl)thiazole-4-carboxamido)-2-methyl-5-phenyl-pentanoate], the IC50 in [1], in [3] and in assay [4] was > 50 nM in each case. Also, the GI50 turned out to be 219 nM in assay [5]; 17.6 nM in [6]; 42.8 nM in [7]; 57.8 nM in assay [8]; 134 nM in assay [9]; 48.5 nM in assay [10]. The GI50 amounted to 61.3 nM in assay [11], 31.4 nM in assay [12] and 105 nM in [13].

Take `CNC12C3C4C1C1C2C3C41C(=O)N[C@H](C(=O)N(C)[C@H](C[C@@H](OC(C)=O)c1nc(C(=O)N[C@@H](Cc2ccccc2)C[C@H](C)C(=O)OC)cs1)C(C)C)C1CC1` (stereo partly drawn) [Tb23, Methyl (2S,4R)-4-(2-((1R,3R)-1-acetoxy-3-((S)-2-cyclopropyl-N-methyl-2-(4-(methylamino)cubane-1-carboxamido)acetamido)-4-methylpentyl)thiazole-4-carboxamido)-2-methyl-5-phenylpentanoate]: the IC50 in [1], in assay [3] and in assay [4] was > 50 nM in each case. Moreover, the GI50 in [5] was 119 nM; in [6], 16.3 nM; in [7] it was 44.7 nM; in [8], 84.5 nM; in assay [9], 181 nM; in assay [10], 54.9 nM. Besides, the GI50 in assay [11] worked out at 204 nM; in [12], 45.1 nM; in assay [13], 308 nM.

On to `CC[C@@H](C)[C@H](NC(=O)[C@H]1CCCCN1C)C(=O)N(C)[C@H](C(=O)NC12C3C4C1C1C2C3C41C(=O)N[C@@H](Cc1ccccc1)C[C@H](C)C(=O)OC)C(C)C` (stereo partly drawn) [Tb17, Methyl (2S,4R)-4-(4-((S)-2-((2S,3S)—N,3-dimethyl-2-((R)-1-methylpiperidine-2-carboxamido)penta-namido)-3-methylbutanamido)cubane-1-carboxamido)-2-methyl-5-phenylpentanoate], for which the IC50 in assay [1], in [3] and in [4] was > 50 nM in each case. The “one dose, mean growth %” value in assay [2] stood at 97.37%.

In the case of `CC[C@H](C)[C@H](NC(=O)C12CC(NC)(C1)C2)C(=O)N(C)[C@H](C[C@@H](OC(C)=O)c1nc(C(=O)N[C@@H](Cc2ccccc2)C[C@H](C)C(=O)OC)cs1)C(C)C` [Tb8, Methyl(2S,4R)-4-(2-((1R,3R)-1-acetoxy-3-((2S,3S)—N,3-dimethyl-2-(3-(methylamino)-bicyclo[1.1.1]pentane-1-carboxamido)pentanamido)-4-methylpentyl)thiazole-4-carboxamido)-2-methyl, 5-phenyl-pentanoate-phenylpentanoate], the IC50 in [1], in [3] and in assay [4] was > 50 nM throughout. The GI50 in assay [5] worked out at 105 nM; in assay [6], 9.62 nM; in assay [7], 52.1 nM; in assay [8], 96.7 nM; in [9], 164 nM; in assay [10], 75 nM. For the same compound, the GI50 in [11] was determined as 121 nM; in assay [12], 33.3 nM; in [13] it was 125 nM.
